# Where two headings read alike, the source gives them in different places.
# Key:
# tumor cell = settings: in vitro; cited from earlier work
# [1] = test system: transplanted Harding-Passey melanomas; parameters: species or system BALB/c mice; settings: mouse, in vivo
# Method: The porphyrins of the present invention were tested for biodistribution and tumor uptake. BALB/c mice carrying transplanted Harding-[…] melanomas subcutaneously on the thigh or abdomen were given six intraperitoneal 0.5 mL injections over two days. The injection solutions contained 1 mg of compound/mL which is a total dose of 3 mg/mouse (approx. 150 μg porphyrin/g body weight or 32.2 μg B/g body weight). The compounds of formula II were completely water soluble and were allowed a 2 day clearance period post injection. The boron content was assayed by prompt gamma analysis using the gamma ray from the ^10 B(n,α)^7 Li reaction. Counts from the […] prompt-.tau.-ray are detected and analyzed using a narrow collimated thermal neutron beam from the Medical Research Reactor at Brookhaven National Laboratory. In this method the mice are dissected and whole organs or tissue samples (0.20-1.0 g) are measured for their boron content. […] Table 1 provides data for both the free base (compound of formula II wherein X is 2H) as well as the zinc chelate (compound of formula II wherein X is Zn), while Table 2 provides data for the free base. […] The long retention of porphyrins in tumor tissue can be exploited by waiting at least 4 days after it has cleared out of the blood before irradiation.
Substance,retention in tumor cell (tumor cell),boron in the normal brain (in words) [1],crossing of the blood-brain barrier [1],retention of boron in tumor and clearance from blood (in words) [1],tumor to blood ratio (comparison) [1],uptake of boron into the tumor (in words) [1],tumor to blood ratio ([1]; 2880 min),tumor to blood ratio ([1]; 5760 min),"uptake in blood ([1]; ip, 48 h)","uptake in brain ([1]; ip, 48 h)","uptake in kidney ([1]; ip, 48 h)","uptake in liver ([1]; ip, 48 h)","uptake in lung ([1]; ip, 48 h)","uptake in muscle ([1]; ip, 48 h)","uptake in spleen ([1]; ip, 48 h)","uptake in tumor ([1]; ip, 48 h)"
Na2 B12 H11 SH [BSH],does not stay in the tumor cell but is easily washed out,,,,,,,,,,,,,,,
"dipotassium 2,4-bis-[2-(1,2-dicarbaundecaborate(-1))ethenyl]deuteroporphyrin IX [FREE BASE]",,only a small amount of boron in the normal brain,does not cross the blood-brain barrier,retention of boron in the tumor with clearance from the blood over time,higher for the free base,substantial uptake of boron into the tumor,approximately 1:1,approx. 5:1,15.3 ± 1.5 μgB/g TISSUE,2.0 μgB/g TISSUE,16.8 μgB/g TISSUE,38.0 ± 11.9 μgB/g TISSUE,20.8 μgB/g TISSUE,3.9 μgB/g TISSUE,8.5 μgB/g TISSUE,18.7 ± 3.4 μgB/g TISSUE

# Source: patent publication US4959356A, “Porphyrins for boron neutron capture therapy” (The United States of America as represented by the United …, priority 1989, dated 1990)
